Values after ≈ are worked out from the molar mass of the structure shown.
Columns and labels:
Type in all cases: functional
Conditions in all cases: read-out: ED50 (the source's name)
A549 = assay: Cytotoxicity against human A549 cells
SK-OV-3 = assay: Cytotoxicity against human SKOV3 cells
SK-MEL-2 = assay: Cytotoxicity against human SK-MEL-2 cells
XF498 = assay: Cytotoxicity against human XF498 cells
HCT-15 = assay: Cytotoxicity against human HCT15 cells

SMILES: COc1cccc2c1C(=O)c1c(O)c3c(c(O)c1C2=O)C[C@@](O)(C(=O)CO)C[C@@H]3O[C@H]1C[C@H](N)[C@H](O)[C@H](C)O1 [DOXORUBICIN]
- EC50 (A549): 0.03 µg/mL (≈ 0.0552 µM)
- EC50 (SK-OV-3): 0.13 µg/mL (≈ 0.239 µM)
- EC50 (SK-MEL-2): 0.06 µg/mL (≈ 0.11 µM)
- EC50 (XF498): 0.19 µg/mL (≈ 0.35 µM)
- EC50 (HCT-15): 0.29 µg/mL (≈ 0.534 µM)

SMILES: COC(=O)CCCCCCCCCCCCCCCCO
- EC50 (A549): > 30 µg/mL
- EC50 (SK-OV-3): > 30 µg/mL
- EC50 (SK-MEL-2): > 30 µg/mL
- EC50 (XF498): > 30 µg/mL
- EC50 (HCT-15): > 30 µg/mL

SMILES: CC(C)CCCCCCCCCC(C)C(=O)OC[C@@H](O)CO (stereo not given in full)
- EC50 (A549): 20 µg/mL (≈ 63.2 µM)
- EC50 (SK-OV-3): 38.9 µg/mL (≈ 123 µM)
- EC50 (SK-MEL-2): 21.8 µg/mL (≈ 68.9 µM)
- EC50 (XF498): 30.7 µg/mL (≈ 97 µM)
- EC50 (HCT-15): 18.6 µg/mL (≈ 58.8 µM)

SMILES: C=CCCCCC(C)CCC/C=C\C#CCC[C@H](OC)C(=O)OC[C@@H](O)COP(=O)([O-])CC[N+](C)(C)C (stereo not given in full)
- EC50 (A549): 11.8 µg/mL (≈ 21.7 µM)
- EC50 (SK-OV-3): 14.5 µg/mL (≈ 26.7 µM)
- EC50 (SK-MEL-2): 9.1 µg/mL (≈ 16.7 µM)
- EC50 (XF498): 13.6 µg/mL (≈ 25 µM)
- EC50 (HCT-15): 15.1 µg/mL (≈ 27.8 µM)

SMILES: C=CCCCCC(C)CCC/C=C\C#CCC[C@H](OC)C(=O)OC[C@@H](O)CO (stereo not given in full)
- EC50 (A549): 31.3 µg/mL (≈ 79.3 µM)
- EC50 (SK-OV-3): > 30 µg/mL
- EC50 (SK-MEL-2): > 30 µg/mL
- EC50 (XF498): 42.5 µg/mL (≈ 108 µM)
- EC50 (HCT-15): > 30 µg/mL

SMILES: CC(C)CCCCCCCCCC(C)C(=O)OC[C@@H](O)COP(=O)([O-])CC[N+](C)(C)C (stereo not given in full) [STELLETTACHOLINE B]
- EC50 (A549): 7.4 µg/mL (≈ 15.9 µM)
- EC50 (SK-OV-3): 4.8 µg/mL (≈ 10.3 µM)
- EC50 (SK-MEL-2): 6.3 µg/mL (≈ 13.5 µM)
- EC50 (XF498): 24.1 µg/mL (≈ 51.8 µM)
- EC50 (HCT-15): 26.9 µg/mL (≈ 57.8 µM)

SMILES: COC(=O)CCCCCCCCCCCCCCO
- EC50 (A549): 25.9 µg/mL (≈ 95.1 µM)
- EC50 (SK-OV-3): 35.7 µg/mL (≈ 131 µM)
- EC50 (SK-MEL-2): > 30 µg/mL
- EC50 (XF498): > 30 µg/mL
- EC50 (HCT-15): 16.5 µg/mL (≈ 60.6 µM)

SMILES: CC(C)CCCCCCCCCCCCC/C=C\CCCC(=O)OC[C@@H](O)CO
- EC50 (A549): > 30 µg/mL
- EC50 (SK-OV-3): > 30 µg/mL
- EC50 (SK-MEL-2): > 30 µg/mL
- EC50 (XF498): > 30 µg/mL
- EC50 (HCT-15): > 30 µg/mL

SMILES: CC(C)CCCCCCCCCCCC/C=C\CC/C=C\CCCC(=O)OC[C@@H](O)CO
- EC50 (A549): > 30 µg/mL
- EC50 (SK-OV-3): > 30 µg/mL
- EC50 (SK-MEL-2): > 30 µg/mL
- EC50 (XF498): > 30 µg/mL
- EC50 (HCT-15): > 30 µg/mL

Source: ChEMBL document CHEMBL1150691, “New lysophosphatidylcholines and monoglycerides from the marine sponge Stelletta sp” (2003)
